Assay results published in patent US10448639B2, “Fungicidal pyrazoles” (FMC CORPORATION, priority 2009, dated 2019).
Where two headings read alike, the source gives them in different places.

Legend:
[1] = tested on: Puccinia recondita f. sp. tritici; experiment: Test I: wheat leaf rust, preventive spray on wheat seedlings, visual disease rating; details: for pest or weed control at 200 µg/mL: 192 h; for Test I rating (% disease control) / Test I disease control rating: wheat leaf rust, 100 = 100% disease control; for Test I disease control rating: sprayed the day before inoculation, 0 = no disease control relative to controls
Botrytis cinerea = experiment: Test B: tomato Botrytis, preventive spray on tomato seedlings, visual disease rating; details: for pest or weed control at 200 µg/mL: Botrytis cinerea, in Solanum lycopersicum, 120 h; for Test B rating (% disease control) / Test B disease control rating: tomato Botrytis, 100 = 100% disease control; for Test B disease control rating: 0 = no disease control relative to controls
Septoria tritici = experiment: Test G: wheat leaf blotch, preventive spray on wheat seedlings, visual disease rating; details: for pest or weed control at 200 µg/mL: Zymoseptoria tritici, in Triticum aestivum, 504 h; for Test G rating (% disease control) / Test G disease control rating: wheat leaf blotch, 100 = 100% disease control; for Test G disease control rating: sprayed the day before inoculation, 0 = no disease control relative to controls
Text: (§1) General protocol for preparing test suspensions for Tests A-J: the test compounds were first dissolved in acetone in an amount equal to 3% of the final volume and then suspended at the desired concentration (in ppm) in acetone and purified water (50/50 mix by volume) containing 250 ppm of the surfactant Trem® 014 (polyhydric alcohol esters). The resulting test suspensions were then used in Tests A-J. Spraying a 200 ppm test suspension to the point of run-off on the test plants was the equivalent of a rate of 500 g/ha. Unless otherwise indicated, the rating values indicate a 200 ppm test suspension was used. (An asterisk “*” next to the rating value indicates a 40 ppm test suspension was used.)
The test suspension was sprayed to the point of run-off on wheat seedlings. The following day the seedlings were inoculated with a spore suspension of Septoria tritici (the causal agent of wheat leaf blotch) and incubated in saturated atmosphere at 24° C. for 48 h. and then the seedlings were moved to a growth chamber at 20° C. for 19 additional days, after which time visual disease ratings were made.

Alternaria solani = experiment: Test C: tomato early blight, preventive spray on tomato seedlings, visual disease rating; details: for pest or weed control at 200 µg/mL: Alternaria solani, in Solanum lycopersicum, 168 h; for Test C rating (% disease control) / Test C disease control rating: tomato early blight, 100 = 100% disease control; for Test C disease control rating: 0 = no disease control relative to controls
[2] = tested on: Erysiphe graminis f sp. tritici; experiment: Test J: wheat powdery mildew, preventive spray on wheat seedlings, visual disease rating; details: for pest or weed control at 200 µg/mL: Blumeria graminis, in Triticum aestivum, 192 h; for Test J rating (% disease control) / Test J disease control rating: wheat powdery mildew, 100 = 100% disease control; for Test J disease control rating: sprayed the day before inoculation, 0 = no disease control relative to controls
Septoria nodorum = experiment: Test F: Septoria glume blotch, preventive spray on wheat seedlings, visual disease rating; details: for pest or weed control at 200 µg/mL: Parastagonospora nodorum, in Triticum aestivum, 192 h; for Test F rating (% disease control) / Test F disease control rating: 100 = 100% disease control; for Test F disease control rating: 0 = no disease control relative to controls
Text: as §1
The test suspension was sprayed to the point of run-off on wheat seedlings. The following day the seedlings were inoculated with a spore suspension of Septoria nodorum (the causal agent of Septoria glume blotch) and incubated in a saturated atmosphere at 24° C. for 48 h, and then moved to a growth chamber at 20° C. for 6 days, after which time visual disease ratings were made.

[3] = tested on: Puccinia recondita f. sp. tritici; experiment: Test H: wheat leaf rust, curative spray on inoculated wheat seedlings, visual disease rating; details: for pest or weed control at 200 µg/mL: 144 h; for Test H rating (% disease control) / Test H disease control rating: wheat leaf rust, 100 = 100% disease control; for Test H disease control rating: sprayed after inoculation, 0 = no disease control relative to controls
[4] = preventive, 0 = no control relative to controls
[5] = 0 = no control relative to controls
[6] = Septoria glume blotch, 0 = no control relative to controls
[7] = curative, 0 = no control relative to controls
[8] = preventive spray, 0 = no control
[9] = Septoria glume blotch on wheat, preventive spray, 0 = no control

Cc1nn(C)c(Nc2c(F)cc(Cl)cc2F)c1-c1ccc(F)cc1Br [Compound 360, 4-(2-bromo-4-fluorophenyl)-N-(4-chloro-2,6-difluorophenyl)-1,3-dimethyl-1H-pyrazol-5-amine]
pest or weed control at 200 µg/mL ([1]; read-out: Test I disease control rating): 100% | pest or weed control at 200 µg/mL (Botrytis cinerea; read-out: Test B disease control rating): 100% | pest or weed control at 200 µg/mL (Septoria tritici; read-out: Test G disease control rating): 100% | pest or weed control at 200 µg/mL (Alternaria solani; read-out: Test C disease control rating): 97% | pest or weed control at 200 µg/mL ([2]; read-out: Test J disease control rating): 100% | pest or weed control at 200 µg/mL (Septoria nodorum; read-out: Test F disease control rating): 95% | pest or weed control at 200 µg/mL ([3]; read-out: Test H disease control rating): 79%

Cc1nn(C)c(Oc2cc(F)c(C#N)cc2F)c1-c1ccc(F)cc1Br [compound 233]
Test I rating (% disease control) [1, 4]: 100% | Test B rating (% disease control) (Botrytis cinerea; [5]): 100% | Test G rating (% disease control) (Septoria tritici; [5]): 100% | Test C rating (% disease control) (Alternaria solani; [5]): 99% | Test J rating (% disease control) [2, 5]: 100% | Test F rating (% disease control) (Septoria nodorum; [6]): 99% | Test H rating (% disease control) [3, 7]: 0%

Cc1nn(C)c(Nc2ccc(F)cc2F)c1-c1c(F)cccc1F [compound 178]
Test I rating (% disease control) [1, 4]: 83% | Test B rating (% disease control) (Botrytis cinerea; [5]): 100% | Test G rating (% disease control) (Septoria tritici; [5]): 98% | Test C rating (% disease control) (Alternaria solani; [5]): 100% | Test J rating (% disease control) [2, 5]: 100% | Test F rating (% disease control) (Septoria nodorum; [6]): 80% | Test H rating (% disease control) [3, 7]: 0%

Cc1nn(C)c(Nc2ncc(Cl)cc2Cl)c1-c1cccc(Cl)c1Cl [compound 303]
Test I disease control rating [1]: 92% | Test B disease control rating (Botrytis cinerea): 99% | Test G disease control rating (Septoria tritici): 98% | Test C disease control rating (Alternaria solani): 0% | Test J disease control rating [2]: 71% | Test F disease control rating (Septoria nodorum; Septoria glume blotch on wheat): 0% | Test H disease control rating [3]: 0%

CCOc1cc(F)c(-c2c(C)nn(C)c2Nc2ccc(F)cc2F)c(F)c1 [compound 141]
Test I rating (% disease control) [1, 8]: 99% | Test B rating (% disease control) (Botrytis cinerea; [8]): 99% | Test G rating (% disease control) (Septoria tritici; [8]): 100% | Test C rating (% disease control) (Alternaria solani; [8]): 99% | Test J rating (% disease control) [2, 8]: 100% | Test F rating (% disease control) (Septoria nodorum; [9]): 98% | Test H rating (% disease control) ([3]; curative spray, 0 = no control): 0%

Cc1nn(C)c(Nc2ccc(F)cc2Cl)c1-c1c(Cl)cccc1Cl [compound 334]
Test I disease control rating [1]: 97% | Test B disease control rating (Botrytis cinerea): 100% | Test G disease control rating (Septoria tritici): 100% | Test C disease control rating (Alternaria solani): 0% | Test J disease control rating [2]: 100% | Test F disease control rating (Septoria nodorum; Septoria glume blotch on wheat): 0% | Test H disease control rating [3]: 0%

CCn1nc(C)c(-c2ccc(Cl)cc2Cl)c1Nc1ccc(F)cc1F [compound 70]
Test I rating (% disease control) [1, 8]: 85% | Test B rating (% disease control) (Botrytis cinerea; [8]): 99% | Test G rating (% disease control) (Septoria tritici; [8]): 99% | Test C rating (% disease control) (Alternaria solani; [8]): 0% | Test J rating (% disease control) [2, 8]: 98% | Test F rating (% disease control) (Septoria nodorum; [9]): 0% | Test H rating (% disease control) ([3]; curative spray, 0 = no control): 41%

COc1ccc(-c2c(C)nn(C)c2Nc2c(F)cc(F)cc2F)c(Cl)c1 [compound 104]
Test I rating (% disease control) [1, 8]: 99% | Test B rating (% disease control) (Botrytis cinerea; [8]): 100% | Test G rating (% disease control) (Septoria tritici; [8]): 99% | Test C rating (% disease control) (Alternaria solani; [8]): 99% | Test J rating (% disease control) [2, 8]: 100% | Test F rating (% disease control) (Septoria nodorum; [9]): 97% | Test H rating (% disease control) ([3]; curative spray, 0 = no control): 99%

COc1cc(F)c(-c2c(C)nn(C)c2Oc2ccc(Br)c(C)c2)c(F)c1 [compound 186]
Test I rating (% disease control) [1, 4]: 54% | Test B rating (% disease control) (Botrytis cinerea; [5]): 0% | Test G rating (% disease control) (Septoria tritici; [5]): 99% | Test C rating (% disease control) (Alternaria solani; [5]): 0% | Test J rating (% disease control) [2, 5]: 93% | Test F rating (% disease control) (Septoria nodorum; [6]): 0% | Test H rating (% disease control) [3, 7]: 0%

Cc1nn(C)c(Nc2c(F)cc(F)cc2F)c1-c1ccc(F)cc1F [Compound 41, 4-(2,4-difluorophenyl)-1,3-dimethyl-N-(2,4,6-trifluorophenyl)-1H-pyrazol-5-amine]
pest or weed control at 200 µg/mL ([1]; read-out: Test I rating (% disease control)): 100% | pest or weed control at 200 µg/mL (Botrytis cinerea; read-out: Test B rating (% disease control)): 100% | pest or weed control at 200 µg/mL (Septoria tritici; read-out: Test G rating (% disease control)): 94% | pest or weed control at 200 µg/mL (Alternaria solani; read-out: Test C rating (% disease control)): 99% | pest or weed control at 200 µg/mL ([2]; read-out: Test J rating (% disease control)): 99% | pest or weed control at 200 µg/mL (Septoria nodorum; read-out: Test F rating (% disease control)): 90% | pest or weed control at 200 µg/mL ([3]; read-out: Test H rating (% disease control)): 0%

Cc1nn(C)c(Nc2c(F)cc(C#N)cc2F)c1-c1ccc(F)cc1F [compound 290]
Test I rating (% disease control) [1, 4]: 100% | Test B rating (% disease control) (Botrytis cinerea; [5]): 100% | Test G rating (% disease control) (Septoria tritici; [5]): 100% | Test C rating (% disease control) (Alternaria solani; [5]): 99% | Test J rating (% disease control) [2, 5]: 100% | Test F rating (% disease control) (Septoria nodorum; [6]): 87% | Test H rating (% disease control) [3, 7]: 0%

COc1ccc(Nc2c(-c3c(F)cccc3F)c(C)nn2C)c(F)c1 [compound 180]
Test I rating (% disease control) [1, 4]: 68% | Test B rating (% disease control) (Botrytis cinerea; [5]): 100% | Test G rating (% disease control) (Septoria tritici; [5]): 98% | Test C rating (% disease control) (Alternaria solani; [5]): 99% | Test J rating (% disease control) [2, 5]: 100% | Test F rating (% disease control) (Septoria nodorum; [6]): 0% | Test H rating (% disease control) [3, 7]: 0%

COc1ccc(Nc2c(-c3ccc(F)cc3Cl)c(C)nn2C)c(Cl)c1 [compound 322]
Test I disease control rating [1]: 100% | Test B disease control rating (Botrytis cinerea): 100% | Test G disease control rating (Septoria tritici): 100% | Test C disease control rating (Alternaria solani): 93% | Test J disease control rating [2]: 100% | Test F disease control rating (Septoria nodorum; Septoria glume blotch on wheat): 0% | Test H disease control rating [3]: 99%

Cc1nn(C)c(Oc2ccc(F)cc2[N+](=O)[O-])c1-c1ccc(F)cc1Cl [compound 122]
Test I rating (% disease control) [1, 8]: 0% | Test B rating (% disease control) (Botrytis cinerea; [8]): 0% | Test G rating (% disease control) (Septoria tritici; [8]): 0% | Test C rating (% disease control) (Alternaria solani; [8]): 0% | Test J rating (% disease control) [2, 8]: 0% | Test F rating (% disease control) (Septoria nodorum; [9]): 0% | Test H rating (% disease control) ([3]; curative spray, 0 = no control): 11%

Cc1nn(C)c(Nc2ccc(F)c(Cl)c2)c1-c1c(F)cc(C#N)cc1F [compound 144]
Test I rating (% disease control) [1, 8]: 98% | Test B rating (% disease control) (Botrytis cinerea; [8]): 99% | Test G rating (% disease control) (Septoria tritici; [8]): 99% | Test C rating (% disease control) (Alternaria solani; [8]): 9% | Test J rating (% disease control) [2, 8]: 91% | Test F rating (% disease control) (Septoria nodorum; [9]): 40% | Test H rating (% disease control) ([3]; curative spray, 0 = no control): 0%

Cc1nn(C)c(Nc2ccc(Cl)cc2Cl)c1-c1ccc(F)cc1F [compound 243]
Test I rating (% disease control) [1, 4]: 97% | Test B rating (% disease control) (Botrytis cinerea; [5]): 100% | Test G rating (% disease control) (Septoria tritici; [5]): 100% | Test C rating (% disease control) (Alternaria solani; [5]): 64% | Test J rating (% disease control) [2, 5]: 100% | Test F rating (% disease control) (Septoria nodorum; [6]): 0% | Test H rating (% disease control) [3, 7]: 0%
